As usually defined, the IC50 is the midpoint of a concentration-inhibition curve.

The results in this text go back to patent US20240083861A1, “HSD17B13 INHIBITORS AND USES THEREOF” (FL2022-001, Inc., priority 2020, published 2024).

For the test, the target named is T1, Recombinant human HSD17B13 enzyme (Homo sapiens, UniProt Q7Z5P4).
T1 sequence (Q7Z5P4 20-300): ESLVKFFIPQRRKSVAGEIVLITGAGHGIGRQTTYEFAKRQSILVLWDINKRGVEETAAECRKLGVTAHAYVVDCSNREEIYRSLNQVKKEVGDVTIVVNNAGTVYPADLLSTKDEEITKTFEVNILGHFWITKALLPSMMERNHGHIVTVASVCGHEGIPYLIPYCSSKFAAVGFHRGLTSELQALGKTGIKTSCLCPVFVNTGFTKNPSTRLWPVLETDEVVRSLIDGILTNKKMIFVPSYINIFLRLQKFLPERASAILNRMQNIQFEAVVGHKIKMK
The experiment in a line: HSD17b13 NAD(P)H-Glo biochemical assay. Conditions: 50 uM estradiol, 1 mM NAD+, NAD(P)H-Glo luminescence; read-out: HSD17β13 IC50. Put shortly:
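Luminescent NAD(P)H-Glo read-out, taken after 1 hour at RT, measured cofactor reduction. Substrate and cofactor were estradiol at 50 uM and NAD+ at 1 mM final, reacted with the recombinant human enzyme for 3 hours at 37° C in 20 mM Tris pH7.4, 0.002% Tween-20, 0.02% BSA. Compound was pre-incubated with enzyme for 20 minutes at RT.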
Turning to `Cn1nc(-c2cc(C(F)(F)F)c(F)c(O)c2F)c2cnc(N3CCC4(CCN4)CC3)nc21` [Compound 18.24, 2,6-Difluoro-3-(1-methyl-6-(1,7-diazaspiro[3.5]nonan-7-yl)-1H-pyrazolo[3,4-d]pyrimidin-3-y1)-5-(trifluoromethyl)phenol], the IC50 lay in the range of 100 to 1000 nM. Next, `Oc1c(F)c(-c2nn(C3CCC3)c3cc(N4CCOCC45CC5)ncc23)cc(C(F)(F)F)c1F` [Compound 9.56, 3-(1-Cyclobutyl-6-(7-oxa-4-azaspiro[2.5]octan-4-yl)-1H-pyrazolo[4,3-c]pyridin-3-yl)-2,6-difluoro-5-(trifluoromethyl)phenol]: under 100 nM; `Cn1nc(-c2cc(C(F)(F)F)c(F)c(O)c2F)c2cnc(N3[C@@H]4CNC[C@H]3COC4)nc21` [Compound 18.11, 3-(6-((1R,5S)-3-oxa-7,9-diazabicyclo[3.3.1]nonan-9-y1)-1-methyl-1H-pyrazolo[3,4-d]pyrimidin-3-y1)-2,6-difluoro-5-(trifluoromethyl)phenol]: 100 to 1000 nM. Next, `CCOC1CCN(c2ncc3c(-c4cc(C(F)(F)F)c(F)c(O)c4F)nn(C)c3n2)CC1` [Compound 18.70, 3-(6-(4-Ethoxypiperidin-1-y1)-1-methyl-1H-pyrazolo[3,4-d]pyrimidin-3-y1)-2,6-difluoro-5-(trifluoromethyl)phenol]: under 100 nM. Under `Cn1nc(-c2cc(C(F)(F)F)c(F)c(O)c2F)c2cnc(N3CCC(C)(O)CC3)nc21` [Compound 18.65, 1-(3-(2,4-Difluoro-3-hydroxy-5-(trifluoromethyl)phenyl)-1-methyl-1H-pyrazolo[3,4-d]pyrimidin-6-yl)-4-methylpiperidin-4-ol] stands under 100 nM. Consider `CS(=O)(=O)N1CCN(c2ccc3oc(-c4cc(O)cc(C(F)(F)F)c4)nc3c2)CC1` [Compound 4.02, 3-(5-(4-(Methylsulfonyl)piperazin-1-yl)benzo[d]oxazol-2-yl)-5-(trifluoromethyl)phenol], for which the IC50 lay within 100 to 1000 nM. Under `Cn1nc(-c2ccc(F)c(O)c2)c2ccc(-c3ccc(O)c(Cl)c3)cc21` [Compound 17, 2-Chloro-4-(3-(4-fluoro-3-hydroxyphenyl)-1-methyl-1H-indazol-6-yl)phenol] stands 100 to 1000 nM; under `CC(C)OC1CCN(c2ncc3c(-c4cc(C(F)(F)F)c(F)c(O)c4F)nn(C)c3n2)CC1` [Compound 18.69, 2,6-Difluoro-3-(6-(4-isopropoxypiperidin-1-yl)-1-methyl-1H-pyrazolo[3,4-d]pyrimidin-3-y1)-5-(trifluoromethyl)phenol], under 100 nM. Next, `CS(=O)(=O)N1CCN(c2ccc3oc(-c4cc(O)c(F)c(F)c4)nc3c2)CC1` [Compound 5.02, 2,3-Difluoro-5-(5-(4-(methylsulfonyl)piperazin-1-yl)benzo[d]oxazol-2-yl)phenol]: 100 to 1000 nM; `Cn1nc(-c2cc(C(F)(F)F)c(F)c(O)c2F)c2cnc(N(Cc3ccccc3)C3CCOCC3)cc21` [Compound 9.123, 3-(6-(Benzyl(tetrahydro-2H-pyran-4-yl)amino)-1-methyl-1H-pyrazolo[4,3-c]pyridin-3-yl)-2,6-difluoro-5-(trifluoromethyl)phenol]: under 100 nM; `COC1CCN(C(=O)c2ccc3oc(-c4cc(O)c(F)c(F)c4)nc3c2)CC1` [Compound 1.08, (2-(3,4-Difluoro-5-hydroxyphenyl)benzo[d]oxazol-5-yl)(4-methoxypiperidin-1-yl)methanone]: 1000 to 30000 nM. With `CN(CC1CCOCC1)c1cc2c(cn1)c(-c1cc(C(F)(F)F)c(F)c(O)c1F)nn2C` [Compound 9.64, 2,6-Difluoro-3-(1-methyl-6-(methyl((tetrahydro-2H-pyran-4-yl)methyl)amino)-1H-pyrazolo[4,3-c]pyridin-3-yl)-5-(trifluoromethyl)phenol], the IC50 is under 100 nM. `Cn1nc(-c2cc(C(F)(F)F)c(F)c(O)c2F)c2cnc(N3CCCCC3COc3ccccc3)nc21` (stereo not shown) [Compound 18.98, 2,6-Difluoro-3-(1-methyl-6-(2-(phenoxymethyl)piperidin-1-yl)-1H-pyrazolo[3,4-d]pyrimidin-3-yl)-5-(trifluoromethyl)phenol]: the IC50 was under 100 nM.

For the compound `CN(c1cc2c(cn1)c(-c1cc(C(F)(F)F)c(F)c(O)c1F)nn2C)C1CCOCC1` [Compound 9.17, 2,6-Difluoro-3-(1-methyl-6-(methyl(tetrahydro-2H-pyran-4-yl)amino)-1H-pyrazolo[4,3-c]pyridin-3-yl)-5-(trifluoromethyl)phenol], the IC50 is under 100 nM. Regarding `COC(=O)N1CCN(c2ncc3c(-c4cc(C(F)(F)F)c(F)c(O)c4F)nn(C)c3n2)CC12CCC2` [Compound 20.03, Methyl 8-(3-(2,4-difluoro-3-hydroxy-5-(trifluoromethyl)phenyl)-1-methyl-1H-pyrazolo[3,4-d]pyrimidin-6-yl)-5,8-diazaspiro[3.5]nonane-5-carboxylate], the IC50 is under 100 nM. Next, `Cn1nc(-c2cc(C(F)(F)F)c(F)c(O)c2F)c2cnc(N3CCO[C@@H](c4ccccc4)C3)cc21` [Compound 9.135, (S)-2,6-Difluoro-3-(1-methyl-6-(2-phenylmorpholino)-1H-pyrazolo[4,3-c]pyridin-3-yl)-5-(trifluoromethyl)phenol]: under 100 nM.

Consider `CN1CC2(CCN(c3ncc4c(-c5cc(C(F)(F)F)c(F)c(O)c5F)nn(C)c4n3)CC2)OC1=O` [Compound 18.89, 8-(3-(2,4-Difluoro-3-hydroxy-5-(trifluoromethyl)phenyl)-1-methyl-1H-pyrazolo[3,4-d]pyrimidin-6-yl)-3-methyl-1-oxa-3,8-diazaspiro[4.5]decan-2-one], for which the IC50 was under 100 nM.

For `Cn1nc(-c2cc(C(F)(F)F)c(F)c(O)c2F)c2cnc(N3CCN(C(=O)C4CCOCC4)CC3)nc21` [Compound 18.127, (4-(3-(2,4-Difluoro-3-hydroxy-5-(trifluoromethyl)phenyl)-1-methyl-1H-pyrazolo[3,4-d]pyrimidin-6-yl)piperazin-1-yl)(tetrahydro-2H-pyran-4-yl)methanone], the IC50 was in the range of 100 to 1000 nM. Next, `Cn1nc(-c2cc(C(F)(F)F)c(F)c(O)c2F)c2cnc(N(Cc3cccnc3)C3CCOCC3)cc21` [Compound 9.131, 2,6-Difluoro-3-(1-methyl-6-((pyridin-3-ylmethyl)(tetrahydro-2H-pyran-4-yl)amino)-1H-pyrazolo[4,3-c]pyridin-3-yl)-5-(trifluoromethyl)phenol]: under 100 nM; `Cn1nc(-c2cc(C(F)(F)F)c(F)c(O)c2F)c2cnc(N3CCN(C(=O)c4ccccc4)CC3)nc21` [Compound 18.114, (4-(3-(2,4-Difluoro-3-hydroxy-5-(trifluoromethyl)phenyl)-1-methyl-1H-pyrazolo[3,4-d]pyrimidin-6-y1)piperazin-1-yl)(phenyl)methanone]: under 100 nM; `Cn1nc(-c2cc(C(F)(F)F)c(F)c(O)c2F)c2cnc(N3CCN(S(C)(=O)=O)CC3)cc21` [Compound 12.05, 2,6-Difluoro-3-(1-methyl-6-(4-(methylsulfonyl)piperazin-1-yl)-1H-pyrazolo[4,3-c]pyridin-3-yl)-5-(trifluoromethyl)phenol]: under 100 nM. Under `COC1CCN(c2ncc3c(-c4cc(C(F)(F)F)c(F)c(O)c4F)nn(C)c3n2)CC1` [Compound 18.77, 2,6-Difluoro-3-(6-(4-methoxypiperidin-1-y1)-1-methyl-1H-pyrazolo[3,4-d]pyrimidin-3-yl)-5-(trifluoromethyl)phenol] stands under 100 nM.
